Values quoted from earlier work as cited in patent US20140045801A1, “PRAMIPEXOLE TRANSDERMAL DELIVERY FOR SEVERE HEADACHES” (MYLAN INC., priority 2012, published 2014).

Conditions: free base; moderate lipophilicity

Question: With `CCCN[C@H]1CCc2nc(N)sc2C1` [Pramipexole free base, Pramipexole] as the compound, how does the “log P” value read?
Answer: Its value is 2.35.
